{"source": "patent US12589082B2", "about": "“Compositions comprising thymoquinone and additional biologically active compounds” (N.S. OILS LTD., priority 2019, dated 2026)", "tested_on": "NO production by LPS-stimulated cultured murine macrophages", "experiment": "Inhibition of NO production (Griess nitrite assay) in LPS-stimulated cultured murine macrophages", "format": "cell-based, murine (ICR mice peritoneal macrophages; RAW264.7)", "details": "for inhibition at 0.269 µg/mL: beta-carotene alone at 0.269 μg/ml", "method": "The aim of this study was to investigate the effect of different combinations of NS oil and carotenoids on the in vitro production of the inflammatory mediator NO by LPS-stimulated cultured murine macrophages.\nMacrophage isolation and cell culture—Peritoneal macrophages were collected from the peritoneal cavity of 6-8 week old male ICR mice (Harlan, Israel) that had been given an intraperitoneal injection of 1.5 ml of thioglycollate broth (4%) 4 days before harvest. […] Peritoneal macrophages and murine macrophage cell line RAW264.7 were cultured RPMI 1640 medium containing 10% FCS, 2 mM L-glutamine; 100 U/ml penicillin; 100 μg/ml streptomycin (Beit-Haemek, Israel) in 96-well plates (1×10^6 cells/well) at 37° C. in 5% CO2 atmosphere. Cells were stimulated with LPS (0.1-1 μg/ml) in the presence or absence of NS oil acid and/or one or more of the following carotenoids: astaxanthin, lutein and beta-Carotene. The following stock solutions of each active agent were used to prepare the various dilutions tested: • Cold-pressed NS oil containing 3% thymoquinone and 1.7% free fatty acids (N.S. Oils, Israel). • Lutein 20% (Lycored Ltd., Israel) • Beta-carotene 30% in vegetable oil (Lycored Ltd., Israel) • Astaxanthin oleoresin extracted from microalgae, containing 10% astaxanthin (Algatech, Israel). • Lycopene (present at a concentration of 6.35% in the commercially-available product known as Lyc-O-Mato, obtained from Lycored Ltd., Israel).\nThe carotenoids were dissolved in DMSO (to a final concentration of 5 mM). The mixture was vortexed and incubated in a water bath at 37° C. (with shaking) for 10 min and then sonicated in a sonicator bath three times for 15 seconds each time. Using this stock solution, the desired concentrations were prepared by the addition of appropriate volumes thereof to warm culture medium.\nAppropriate volumes of DMSO (0.1-0.2%) were added to the control tubes and the percent inhibition of NO production in each test tube was calculated in relation to its control.\nNO production assay—NO levels in supernatants of cell cultures were determined by assaying nitrite levels using Griess reagent and sodium nitrite as a standard as described in Green, L. C., Wagner, D. A., Glogowski, J., Skipper, P. L., Wishnok, J. S., and Tannenbaum, S. R. (1982) Anal Biochem. 126: 131-138. […]"}
{"smiles": "C=C(C)[C@@H]1CCC(C)=C[C@H]1c1c(O)cc(CCCCC)cc1O", "note": "[CBD, cannabidiol]", "values": [{"measurement": "inhibition of NO production", "setting": "Example 2 first study, FIG. 8, CBD alone at 0.0075 μg/ml", "value": "did not results in a detectable level of NO inhibition"}, {"measurement": "inhibition of NO production", "setting": "Example 2 second study, FIG. 9 upper, CBD alone at 0.005 μg/ml", "value": "measurable inhibition of NO production"}, {"measurement": "inhibition at 0.01 µg/mL", "setting": "Mus musculus, Macrophage, read-out: inhibition of NO production", "value": "< 10", "unit": "%"}]}
{"smiles": "CC1=C(/C=C/C(C)=C/C=C/C(C)=C/C=C/C=C(C)/C=C/C=C(C)/C=C/C2=C(C)C(=O)[C@@H](O)CC2(C)C)C(C)(C)C[C@H](O)C1=O", "note": "[astaxanthin]", "values": [{"measurement": "inhibition of NO production", "setting": "Example 1 first study, FIG. 1, astaxanthin alone at 0.298 and 0.596 μg/ml, % of maximal inhibition", "value": "20-25%"}, {"measurement": "inhibition at 0.298 µg/mL", "setting": "Mus musculus, Macrophage, Example 4, text summary, astaxanthin only, 0.298 μg/ml", "value": "~20", "unit": "%"}, {"measurement": "inhibition at 0.298 µg/mL", "setting": "Mus musculus, Macrophage, Example 4 comparative, column 0.0015 μg/ml TQ of high-FFA NS oil dilution, astaxanthin 0.298 μg/ml, agent alone or combined as labelled", "value": 19.1, "unit": "%"}, {"measurement": "inhibition at 0.298 µg/mL", "setting": "Mus musculus, Macrophage, Example 4 comparative, column 0.0030 μg/ml TQ of high-FFA NS oil dilution, astaxanthin 0.298 μg/ml, agent alone or combined as labelled", "value": 21.3, "unit": "%"}, {"measurement": "inhibition at 0.298 µg/mL", "setting": "Mus musculus, Macrophage, second study, FIG. 4, astaxanthin alone at 0.298 μg/ml", "value": 19.1, "unit": "%"}]}
{"smiles": "CC1=C(/C=C/C(C)=C/C=C/C(C)=C/C=C/C=C(C)/C=C/C=C(C)/C=C/C2=C(C)CCCC2(C)C)C(C)(C)CCC1", "note": "[beta-carotene]", "values": [{"measurement": "inhibition at 0.269 µg/mL", "setting": "Mus musculus, Macrophage, first study, FIG. 3", "value": "< 10", "unit": "%"}, {"measurement": "inhibition at 0.538 µg/mL", "setting": "Mus musculus, Macrophage, first study, FIG. 3, beta-carotene alone at 0.538 μg/ml", "value": "< 20", "unit": "%"}, {"measurement": "inhibition at 0.269 µg/mL", "setting": "Mus musculus, Macrophage, second study, FIG. 6", "value": 3.89, "unit": "%"}]}
{"smiles": "CC1=C[C@H](O)CC(C)(C)[C@H]1/C=C/C(C)=C/C=C/C(C)=C/C=C/C=C(C)/C=C/C=C(C)/C=C/C1=C(C)C[C@@H](O)CC1(C)C", "note": "[lutein]", "values": [{"measurement": "inhibition at 0.284 µg/mL", "setting": "Mus musculus, Macrophage, second study, FIG. 5, lutein alone at 0.284 μg/ml", "value": 6.96, "unit": "%"}, {"measurement": "inhibition of NO production", "setting": "first study, FIG. 2, lutein alone at 0.284 μg/ml", "value": "did not cause any measurable degree of NO inhibition"}]}
{"smiles": "CC(C)=CCC/C(C)=C/C=C/C(C)=C/C=C/C(C)=C/C=C/C=C(C)/C=C/C=C(C)/C=C/C=C(\\C)CCC=C(C)C", "note": "[lycopene]", "values": [{"measurement": "inhibition at 0.35 µg/mL", "setting": "Mus musculus, Macrophage, second study, FIG. 7, lycopene alone at 0.35 μg/ml", "value": 13.5, "unit": "%"}]}
